Data as given in patent US20100160324A1, “PYRAZOLE DERIVATIVES AS THAT MODULATE THE ACTIVITY OF CDK, GSK AND AURORA KINASES” (ASTEX THERAPEUTICS LIMITED, priority 2004, published 2010).
One block for each compound: values may come before it.

Assays:
[1] = system: malignant cells from B-cell chronic lymphocytic leukemia (B-CLL); settings: in vitro; cited from earlier work
[2] = system: treatment-refractory primary Acute Myelogenous Leukemia (AML) cells from patients; settings: cited from earlier work
CDK1/CyclinB = biological target: T1, CDK1/CyclinB (Homo sapiens, UniProt P06493); test: Activated CDK1/CyclinB activity assay; assay type: biochemical; settings: read-out: IC50 against CDK1 activity
T1 construct: purchased Upstate Discovery
Procedure: Measurement of Activated CDK1/Cycling Activity Assay (IC50)
CDK1/CyclinB assay is identical to the CDK2/CyclinA above except that CDK1/CyclinB (Upstate Discovery) is used and the enzyme is diluted to 6.25 nM.

Activated CDK2/CyclinA = Activated CDK2/CyclinA (Homo sapiens, UniProt P24941); test: Activated CDK2/CyclinA kinase inhibitory activity assay; assay type: biochemical; settings: read-out: IC50 against CDK2 activity
Procedure: Measurement of Activated CDK2/CyclinA Kinase Inhibitory Activity Assay (IC50)
Compounds of the invention were tested for kinase inhibitory activity using the following protocol.
Activated CDK2/CyclinA (Brown et al, Nat. Cell Biol., 1, pp 438-443, 1999; Lowe, E. D., et al Biochemistry, 41, pp 15625-15634, 2002) is diluted to 125 pM in 2.5× strength assay buffer (50 mM MOPS pH 7.2, 62.5 mM β-glycerophosphate, 12.5 mM EDTA, 37.5 mM MgCl2, […], 2.5 mM DTT, 2.5 mM sodium orthovanadate, 0.25 mg/ml bovine serum albumin), and 10 μl mixed with 10 μl of histone substrate mix (60 μl bovine histone H1 (Upstate Biotechnology, 5 mg/ml), 940 μl H2O, 35μ Ci γ^33P-ATP) and added to 96 well plates along with 5 μ of various dilutions of the test compound in DMSO (up to 2.5%). The reaction is allowed to proceed for 2 to 4 hours before being stopped with an excess of ortho-phosphoric acid (5 μl at 2%).
γ^33P-ATP which remains unincorporated into the histone H1 is separated from phosphorylated histone H1 on a Millipore MAPH filter plate. The wells of the MAPH plate are wetted with 0.5% orthophosphoric acid, and then the results of the reaction are filtered with a Millipore vacuum filtration unit through the wells. […] Once the filters have dried, 20 μl of Microscint 20 scintillant is added, and then counted on a Packard Topcount for 30 seconds. […]

T1 sequence (P06493 whole entry): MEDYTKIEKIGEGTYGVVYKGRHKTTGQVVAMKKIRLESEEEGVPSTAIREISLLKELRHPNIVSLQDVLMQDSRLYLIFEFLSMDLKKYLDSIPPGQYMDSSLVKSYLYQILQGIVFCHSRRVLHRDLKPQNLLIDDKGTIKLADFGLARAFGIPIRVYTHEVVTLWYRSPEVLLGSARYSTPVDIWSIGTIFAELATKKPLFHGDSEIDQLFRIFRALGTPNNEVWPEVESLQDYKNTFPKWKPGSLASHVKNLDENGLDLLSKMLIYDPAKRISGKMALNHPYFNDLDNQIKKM
T1 sequence (P14635 whole entry partner): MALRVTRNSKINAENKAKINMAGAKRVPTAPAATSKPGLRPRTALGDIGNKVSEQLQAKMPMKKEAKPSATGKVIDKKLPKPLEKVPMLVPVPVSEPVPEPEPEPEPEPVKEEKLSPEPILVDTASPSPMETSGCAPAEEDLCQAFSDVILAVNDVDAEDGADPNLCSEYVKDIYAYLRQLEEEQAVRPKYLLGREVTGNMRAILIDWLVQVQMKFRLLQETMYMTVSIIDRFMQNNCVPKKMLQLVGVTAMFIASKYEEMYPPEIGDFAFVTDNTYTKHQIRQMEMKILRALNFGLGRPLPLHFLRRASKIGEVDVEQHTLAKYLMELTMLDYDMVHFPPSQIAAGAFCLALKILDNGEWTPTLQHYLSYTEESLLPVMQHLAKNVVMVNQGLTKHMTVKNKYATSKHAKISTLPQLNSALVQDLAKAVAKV

SMILES: CC[C@H](CO)Nc1nc(NCc2ccccc2)c2ncn(C(C)C)c2n1 [CYC 202]
apoptosis of malignant B-CLL cells [1]: induce in vitro apoptosis

SMILES: CN1CC[C@H](c2c(O)cc(O)c3c(=O)cc(-c4ccccc4Cl)oc23)[C@H](O)C1 [Flavopiridol]
apoptosis of malignant B-CLL cells [1]: induce in vitro apoptosis

SMILES: Cc1cc(Nc2cc(N3CCN(C)CC3)nc(Sc3ccc(NC(=O)C4CC4)cc3)n2)n[nH]1 [VX-680]
killing of treatment-refractory primary AML cells [2]: potently killed

IC50 (CDK1/CyclinB): < 1 µM
IC50 (Activated CDK2/CyclinA): < 1 µM
SMILES: O=C(Nc1c[nH]nc1-c1cccnc1)c1c(F)cccc1F [Example 1, 2,6-difluoro-N-(3-pyridin-3-yl-1H-pyrazol-4-yl)-benzamide]
